Experimental data as given in patent US10272053B2, “Nanoparticle targeted drug delivery to the lungs using extra-testicular sertoli cells” (UNIVERSITY OF SOUTH FLORIDA, priority 2008, dated 2019).

Assay: Quantification of curcumin in lungs of injected asthmatic mice (UV absorbance)
Type: in vivo, mouse
Conditions: IV SCET
Protocol: […] Each lung was placed in a labeled container with 1 ml PBS. The lungs were then sonicated for 10 seconds by the Sonic Dismembrinator 60 (Fisher Scientific) to lyse the Sertoli cells and release the curcumin nanoparticles. The curcumin was then separated from the nanoparticles by adding 500 μl DMSO to each container. The suspension was then centrifuged at 1200 rpm for 10 minutes and the supernatant was collected. A UV spectrum was collected from each supernatant sample.
In addition to normal mice, some female C57BL/6 and BALB/c mice were sensitized by intraperitoneal injection (i.p.) of 10 μl ovalbumin (OVA) with alum as previously described to mimic acute allergic asthma (Weggman, M. Animal models of chronic experimental asthma—strategies for the identification of new therapeutic targets. Occup Med Toxicol. 3 (Suppl 1) (2008); Temelkovski J, Hogan S P, Shepherd D P, Foster P S, Kumar R K. An improved murinemodel of asthma: selective airway inflammation, epithelial lesions and increased methacholine responsiveness following chronic exposure to aerosolised allergen. Thorax. 10, 849-56 (1998)). The mice were challenged weekly for 3 weeks with an intranasal injection (i.n.) of 25 μl OVA (20 mg/ml). One hour after the last i.n. challenge, the treatment group (n=7) was injected via the tail vein with pre-loaded, pre-labeled SCET (8×10^6) that contained nanoparticles coupled with […] curcumin dose. Others asthmatic mice were not injected with SCET to serve as untreated controls (n=6). […]
Each lung was placed in a labeled container with 1 ml PBS. The lungs were then sonicated for 10 seconds by the Sonic Dismembrinator 60 (Fisher Scientific) to lyse the Sertoli cells and release the curcumin nanoparticles. The curcumn was then separated from the nanoparticles by adding 500 μl DMSO to each container. The suspension was then centrifuged at 1200 rpm for 10 minutes and the supernatant was collected. A UV spectrum was collected from each supernatant sample. Data was presented for absorbance assays of Sertoli cells, nanoparticles and curcumin from all samples from all mice, including a sample of the nanoparticle pre-loaded, pre-labeled SC injectable (8×10^6) were replicated and the mean values of SCs, nanoparticles and curcumin were expressed as a percentage of the mean value determined in the pre-loaded, pre-labeled Sertloli cell injectable (8×10^6)

percentage of injected curcumin load present in the lungs (15 minutes post-injection): 80%
delivery of curcumin throughout the pulmonary tissue (time not stated): 80%
percentage of total curcumin in the injected SCET found in the lungs (asthmatic mice, 25 hours following injection): 80%
percentage of injected curcumin load present in the lungs (asthmatic mice, one hour post-injection): 80%
Structure (SMILES): COc1cc(/C=C/C(=O)CC(=O)/C=C/c2ccc(O)c(OC)c2)ccc1O [curcumin]
